Experimental data: patent US7282507B2, “Indole derivatives as selective androgen receptor modulators (SARMS)” (Janssen Pharmaceutica N.V., priority 2004, dated 2007)

What follows are molecules tested on testosterone-enhanced ventral prostate and seminal vesicle weights (assay: Ventral Prostate and Seminal Vesicle Weight in vivo Assay). Settings: immature castrated male Sprague Dawley rats, once daily for five days, usually orally 40 mg/kg, with testosterone propionate 2 mg/kg s.c.
Design: species or system rat
Method: Immature (approximately 50 g) castrated male Sprague Dawley rats (Charles River) were treated once daily for five days with test compound (usually given orally at 40 mg/kg in a volume of 0.3 mL, in 30% cyclodextrin or 0.5% methylcellulose vehicle) and with testosterone propionate (given subcutaneously by injection at the nape of the neck at 2 mg/kg, in a volume of 0.1 mL in sesame oil). On the sixth day, the rats were euthanized by asphyxiation in carbon dioxide. Ventral prosatates and seminal vesicles were removed and their wet weights determined.
A test compound was said to be “active” if the non weight adjusted prostate weight was ≦40 mg or the % Inhibition prostate weight, body weight adjusted was ≧40% @ 2 mg/day dosage.
Also: key: 'active' if the non weight adjusted prostate weight was ≦40 mg or the % Inhibition prostate weight, body weight adjusted was ≧40% @ 2 mg/day dosage; ID50's, if determined, of ≦15 mg/day also indicated an 'active' compound; listed herein as 'inactive' as they did not meet the specified criteria defined above.

| Structure (SMILES) | active / inactive: inhibition of testosterone-enhanced prostate weight |
| --- | --- |
| CCSCC(C)(O)c1cc2cc(C#N)c(C)cc2[nH]1 (racemic) [Compound 446] | inactive |
| CCSCC(C)(O)c1cc2cc(Cl)c(C#N)cc2[nH]1 (single isomer, unassigned) [Compound 228] | inactive |
| CCS(=O)(=O)CC(C)(O)c1cc2cc([N+](=O)[O-])c(C(F)(F)F)cc2n1C (single isomer, unassigned) [Compound 232] | active |
| CCSCC(C)(O)c1[nH]c2cc(C(F)(F)F)c([N+](=O)[O-])cc2c1I (single isomer, unassigned) [Compound 241] | inactive |
| CCSCC(C)(O)c1[nH]c2cc(C(F)(F)F)c([N+](=O)[O-])cc2c1I (single isomer, unassigned) [Compound 244] | active |
| CCS(=O)(=O)CC(C)(O)c1cc2cc([N+](=O)[O-])c(C(F)(F)F)cc2n1C (single isomer, unassigned) [Compound 250] | active |
| CCSCC(C)(O)c1c(C)c2cc(C#N)c(C(F)(F)F)cc2n1C (single isomer, unassigned) [Compound 317] | inactive |
| CCSCC(C)(O)c1c(C)c2cc(C#N)c(C(F)(F)F)cc2n1C (single isomer, unassigned) [Compound 318] | inactive |
| CC(O)(c1[nH]c2cc(C(F)(F)F)c(C#N)cc2c1Cl)C(F)(F)F (single isomer, unassigned) [Compound 345] | active |
| CC(O)(c1[nH]c2cc(C(F)(F)F)c(C#N)cc2c1C#C[Si](C)(C)C)C(F)(F)F (single isomer, unassigned) [Compound 347] | active |
| CCSCC(C)(O)c1[nH]c2cc(C(F)(F)F)c(C#N)cc2c1I (single isomer, unassigned) [Compound 349] | active |
| CCc1c(C(C)(O)CS(=O)(=O)CC)[nH]c2cc(C(F)(F)F)c(C#N)cc12 (single isomer, unassigned) [Compound 354] | active |
| CCS(=O)(=O)CC(C)(O)c1cc2cc(C#N)c(C(F)(F)F)cc2[nH]1 (single isomer, unassigned) [Compound 397] | inactive |
| CCSCC(C)(O)c1cc2cc(C#N)ncc2[nH]1 (stereo not shown) [Compound 7] | inactive |
| CCSCC(O)(CSCC)c1cc2cc([N+](=O)[O-])c(C(F)(F)F)cc2[nH]1 [Compound 13] | inactive |
| CC(O)(CS(=O)(=O)c1ccc(F)cc1)c1cc2cc(Cl)c(C(F)(F)F)cc2[nH]1 (stereo not shown) [Compound 85] | inactive |
| CCSCC(C)(O)c1cc2cc(N)c(C(F)(F)F)cc2[nH]1 (stereo not shown) [Compound 166] | inactive |
| CC(C)(O[Si](C)(C)C)c1cc2cc([N+](=O)[O-])c(C(F)(F)F)cc2n1S(C)(=O)=O [Compound 269] | inactive |
| CC(C)(O[Si](C)(C)C)c1cc2cc(Cl)c(C(F)(F)F)cc2n1S(C)(=O)=O [Compound 270] | inactive |
| CC(C)(O)c1cc2cc([N+](=O)[O-])c(C(F)(F)F)cc2n1S(C)(=O)=O [Compound 273] | inactive |
| CC(C)(O)c1cc2cc([N+](=O)[O-])c(C(F)(F)F)cc2[nH]1 [Compound 274] | inactive |
| CC(C)(O)c1[nH]c2cc(C(F)(F)F)c([N+](=O)[O-])cc2c1Cl [Compound 275] | active |

| Structure (SMILES) | active / inactive: inhibition of testosterone-enhanced prostate weight |
| --- | --- |
| CC(C)(O)c1[nH]c2cc(C(F)(F)F)c([N+](=O)[O-])cc2c1I [Compound 276] | active |
| CC(C)(O)c1[nH]c2cc(C(F)(F)F)c([N+](=O)[O-])cc2c1Br [Compound 277] | active |
| CC(C)(O)c1[nH]c2cc(C(F)(F)F)c(C#N)cc2c1I [Compound 278] | active |
| CC(C)(O)c1[nH]c2cc(C(F)(F)F)c(Cl)cc2c1I [Compound 279] | inactive |
| CC(C)(O)c1[nH]c2cc(C(F)(F)F)c(Cl)cc2c1Br [Compound 280] | inactive |
| C=Cc1c(C(C)(C)O)[nH]c2cc(C(F)(F)F)c([N+](=O)[O-])cc12 [Compound 281] | inactive |
| CC(C)(O)c1[nH]c2cc(C(F)(F)F)c(Cl)cc2c1Cl [Compound 282] | inactive |
| CC(C)(O)c1cc2cc(Cl)c(C(F)(F)F)cc2n1S(C)(=O)=O [Compound 284] | active |
| CC(C)(O)c1cc2cc(Cl)c(C(F)(F)F)cc2[nH]1 [Compound 285] | inactive |
| CC(C)(O)c1[nH]c2cc(C(F)(F)F)c(C#N)cc2c1Cl [Compound 287] | inactive |
| CC(C)(O)c1[nH]c2cc(C(F)(F)F)c(C#N)cc2c1Br [Compound 288] | active |
| Cc1c(C(C)(C)O)[nH]c2cc(C(F)(F)F)c(C#N)cc12 [Compound 289] | active |
| Cc1c(C(C)(C)O)[nH]c2cc(C(F)(F)F)c([N+](=O)[O-])cc12 [Compound 290] | inactive |
| CC(C)(O)c1[nH]c2cc(C(F)(F)F)c([N+](=O)[O-])cc2c1C#N [Compound 291] | active |
| CC(C)(O)c1cc2cc(Br)ccc2[nH]1 [Compound 294] | inactive |
| CC(C)(O)c1[nH]c2cc(C(F)(F)F)c(C#N)cc2c1C#N [Compound 295] | inactive |
| CC(O)(c1cc2cc(C#N)c(C(F)(F)F)cc2[nH]1)C(F)(F)F (stereo not shown) [Compound 329, 2-(2,2,2-Trifluoro-1-hydroxy-1-methyl-ethyl)-6-trifluoromethyl-1H-indole-5-carbonitrile] | active |
| CC(O)(c1cc2cc(C#N)c(C(F)(F)F)cc2[nH]1)C(F)(F)F (stereo not shown) [Compound 334, 2-(2,2,2-Trifluoro-1-hydroxy-1-methyl-ethyl)-6-trifluoromethyl-1H-indole-5-carbonitrile] | active |
| CC(O)(c1cc2cc(C#N)c(C(F)(F)F)cc2[nH]1)C(F)(F)F (stereo not shown) [Compound 335, 2-(2,2,2-Trifluoro-1-hydroxy-1-methyl-ethyl)-6-trifluoromethyl-1H-indole-5-carbonitrile] | active |
| N#Cc1cc2cc(C(O)(C(F)(F)F)C(F)(F)F)[nH]c2cc1C(F)(F)F [Compound 357] | active |
| CC(C)(O)c1cc2cc(Cl)c(Cl)cc2[nH]1 [Compound 405] | inactive |
